Reference: patent US20250197373A1, “SMALL MOLECULE COMPOUND OR SALT THEREOF OR SOLVATE OF THEM, GUANINE NUCLEOTIDE-BINDING PROTEIN G(Q) SUBUNIT ALPHA (GNAQ) INHIBITOR CONTAINING THE SAME AND METHOD FOR TREATING AND/OR PREVENTING CANCER” (INDUSTRIAL TECHNOLOGY RESEARCH INSTITUTE, priority 2023, published 2025)

Key:
[1] = tested on: MCF-7 GNAQ (T96S) cells; assay: Inhibition of growth of mammary gland cancer cells MCF-7 GNAQ (T96S) (PrestoBlue); assay type: cell-based; conditions: Homo sapiens, MCF7, 168 h, 7 days culture, 2% fetal bovine serum, read-out: Inhibitory activity (evaluated by IC50)
Procedure: Human mammary gland cancer cells, MCF-7 cells and MCF-7 GNAQ (T96S) cells (MCF-7 cells expressing GNAQ (T96S) after GNAQ gene deletion) were cultured in MEM medium.
1×10^3 of the cells mentioned above were seeded in a 96-well plate and cultured overnight (at least 16 hours) in a carbon dioxide incubator.
(§1) After overnight incubation, the supernatant was removed. Next, after 200 μL of cell culture medium (containing 2% fetal bovine serum) containing different concentrations of test compound was added to each well of the 96-well plate, the 96-well plate was placed in a 5% carbon dioxide incubator at 37° C. for 7 days further culture. After that, an additional 30 μL of diluted PrestoBlue™ Cell Viability Reagent (Catalog Number: A13261; Thermo Fisher Scientific) (4 μL stock solution and 26 μL culture medium) was added to each well of the 96-well plate and the reaction was continued for further about 1 hour.
Finally, the fluorescence value at the wavelength of 535/615 nm of each well was read with a plate enzyme immunoassay analyzer, and the inhibitory rate of the compound on mammary gland cancer cells were calculated using the following formula.
Moreover, the half maximal inhibitory concentration (IC50) of the compound on the growth of mammary gland cancer cells was calculated with the inhibitory rate of the compound on mammary gland cancer cells at each concentration through the online half maximal inhibitory concentration (IC50) calculation software, IC50 Calculator, provided by AAT Bioquest company on its website (https://www.aatbio.com/tools/ic50-calculator).
Finally, the inhibition of the compound on the growth of mammary gland cancer cells was evaluated by the calculated half maximal inhibitory concentration (IC50) of the compound on the growth of mammary gland cancer cells.
The inhibition of the compound on the growth of breast cancer cells was evaluated by the half maximal inhibitory concentration (IC50) of the compound (one of Compound 1 to Compound 15 prepared above) on the growth of mammary gland cancer cells through the human mammary gland cancer cell line MCF-7 and the human mammary gland cancer cell line MCF-7 GNAQ (T96S) expressing the mutated gene.

[2] = tested on: MDA-MB-231; assay: Inhibition of growth of triple-negative breast cancer cells MDA-MB-231 (PrestoBlue); assay type: cell-based; conditions: Homo sapiens, 168 h, 7 days culture, 2% fetal bovine serum, read-out: Inhibitory activity (evaluated by IC50)
Procedure: Triple-negative breast cancer cells, MDA-MB-231 and MDA-MB-231-OE-GNAQ (T96S) (additionally expressing GNAQ (T96S)) were cultured in L-15 medium and in a temperature-controlled incubator without need of additional offer of 5% carbon dioxide.
1×10^3 of the cells mentioned above were seeded in a 96-well plate, placed in a temperature-controlled incubator and cultured overnight (at least 16 hours).
as §1, with “a” for “a 5% carbon dioxide incubator at”, “C. incubator” for “C.”
Finally, the fluorescence value at the wavelength of 535/615 nm of each well was read with a plate enzyme immunoassay analyzer, and the inhibitory rate of the compound on triple-negative breast cancer cells were calculated using the following formula.
Moreover, the half maximal inhibitory concentration (IC50) of the compound on the growth of triple-negative breast cancer cells was calculated with the inhibitory rate of compound on triple-negative breast cancer cells at each concentration through the online half maximal inhibitory concentration (IC50) calculation software, IC50 Calculator, provided by AAT Bioquest company on its website (https://www.aatbio.com/tools/ic50-calculator).
Finally, the inhibition of the compound on the growth of triple-negative breast cancer cells was evaluated by the calculated half maximal inhibitory concentration (IC50) of the compound on the growth of triple-negative breast cancer cells.
The inhibition of the compound on the growth of triple-negative breast cancer cells was evaluated by the half maximal inhibitory concentration (IC50) of the compound (one of Compound 1 to Compound 15 prepared above) on the growth of triple-negative breast cancer cells through the human triple-negative breast cancer cell lines MDA-MB-231 and MDA-MB-231-OE-GNAQ (T96S) (additionally expressing GNAQ (T96S)).

| IC50 [1] [nM] | IC50 [2] [nM] | SMILES |
| --- | --- | --- |
| 310 to 2500 | 310 to 2500 | O=C(Nc1cccc(-c2ccnc(-c3ccnc(Cl)c3)n2)c1)Nc1cc(Cl)nc(Cl)c1 [Compound 1] |
| 310 to 2500 | 310 to 2500 | O=C(Nc1cccc(-c2ccnc(-c3cccc(C(F)(F)F)c3)n2)c1)Nc1cc(Cl)nc(Cl)c1 [Compound 2] |
| 310 to 2500 | 310 to 2500 | N#Cc1cccc(-c2nccc(-c3cccc(NC(=O)Nc4cc(Cl)nc(Cl)c4)c3)n2)c1 [Compound 3] |
| 310 to 2500 | 310 to 2500 | O=C(Nc1cccc(-c2ccnc(-c3ccc(F)c(F)c3)n2)c1)Nc1cc(Cl)nc(Cl)c1 [Compound 4] |
| 310 to 2500 | 310 to 2500 | O=C(Nc1cccc(-c2ccnc(-c3cccc(C(F)(F)F)c3)n2)c1)c1cc(Cl)nc(Cl)c1 [Compound 5] |
| 310 to 2500 | 2500 to 5000 | O=C(Nc1ccc(-c2ccnc(-c3ccncc3)n2)cc1)Nc1ccc(Cl)c(C(F)(F)F)c1 [Compound 6] |
| 310 to 2500 | 310 to 2500 | O=C(Nc1ccc(-c2ccnc(-c3cccc(C(F)(F)F)c3)n2)cc1)Nc1cc(Cl)nc(Cl)c1 [Compound 7] |
| 310 to 2500 | 310 to 2500 | O=C(Nc1ccc(-c2ccnc(-c3cccc(C(F)(F)F)c3)n2)cc1)Nc1ccc(Cl)c(C(F)(F)F)c1 [Compound 8] |
| 310 to 2500 | 310 to 2500 | O=C(Nc1ccc(-c2cccc(-c3cccc(C(F)(F)F)c3)n2)cc1)Nc1cc(Cl)nc(Cl)c1 [Compound 9] |
| 310 to 2500 | 310 to 2500 | FC(F)(F)c1cccc(-c2cccc(-c3ccc(NC(=S)Nc4cc(Cl)nc(Cl)c4)cc3)n2)c1 [Compound 10] |
| 310 to 2500 | 310 to 2500 | N#Cc1cccc(-c2cccc(-c3ccc(NC(=S)Nc4cc(Cl)nc(Cl)c4)cc3)n2)c1 [Compound 11] |
| 310 to 2500 | 310 to 2500 | O=C(Nc1ccc(-c2cccc(-c3ccncc3)n2)cc1)Nc1ccc(Cl)c(C(F)(F)F)c1 [Compound 12] |
| 310 to 2500 | 310 to 2500 | O=C(Nc1cccc(-c2cccc(-c3ccncc3)n2)c1)Nc1cc(Cl)nc(Cl)c1 [Compound 13] |
| < 310 | 310 to 2500 | O=C(Nc1cccc(-c2cc(-c3cccc(C(F)(F)F)c3)ncn2)c1)Nc1cc(Cl)nc(Cl)c1 [Compound 14] |
| < 310 | 310 to 2500 | O=C(Nc1ccc(-c2nc(-c3ccccc3)ncc2Cl)cc1)Nc1cc(Cl)nc(Cl)c1 [Compound 15] |
